Values quoted from earlier work as cited in patent US20070110808A1, “Extended release osmo-microsealed formulation” (ALEMBIC LIMITED, priority 2003, published 2007).

Conditions: compressed tablets, 75 to 350 mg/day in divided doses two or three times a day

Q: With `COc1ccc(C(CN(C)C)C2(O)CCCCC2)cc1.Cl` (centres unmarked) [Venlafaxine Hydrochloride, 1-[2-(dimethylamino)-1-(4-methoxyphenyl)ethyl]cyclohexanol Hydrochloride] as the compound, how does the patients experiencing nausea read?
A: The patients experiencing nausea was “about forty five”.

Q: And the “patients in whom vomiting occurs” value?
A: Its value is “about seventeen”.
